Results: article PMC9555560, “Fast relaxing red and near-IR switchable azobenzenes with chalcogen and halogen substituents: periodic trends, tuneable thermal half-lives and chalcogen bonding” (Chemical Science, 2022)

Legend:
Assay type in all cases: physicochemical
[1] = GSH stability study (decay of absorbance in phosphate buffer with 10 mM glutathione); settings: for t1 of 1st order exponential decay fit (decomposition with GSH): 100 mM phosphate buffer containing 10 mM GSH degassed with N2, 298 K; for τ 1/2 (10 mM GSH): 100 mM phosphate buffer pH 7 containing 10 mM GSH, degassed with N2, 298 K, para substituent CH2NH2·TFA
Experimental: Finally, the stability of the X4 derivatives were assessed by exposing them to the highest expected intracellular concentration of glutathione (GSH, 10 mM).[28] This was achieved by treating the Boc-protected amino-methyl derivatives X4-NHBoc (X = F, Cl, Br, I, OMe, SMe and SeMe) with TFA to remove the protecting groups. The resulting ammonium-appended AB derivative was dissolved in N2-degassed 100 mM phosphate buffer at pH 7 containing 10 mM GSH, and the changes in absorbance were monitored over an extended period. […] Strong σ-donating substituents are also proposed to aid diazo lone pair protonation, and subsequent GSH attack.[25]
A 10 mM reduced glutathione (GSH) solution was prepared in degassed 100 mM sodium phosphate buffer (at least 15 minutes of N 2 bubbled through the buffer solution prior to addition to GSH). The absorption of the solution was measured periodically at 25 °C, then fitted to a 1 st Order exponential […]
Equation y = y0 + A1*exp(-(x-x0)
Figure S366. Decomposition of F4-CH2NH2•TFA Conditions: 100 mM phosphate buffer containing 10 mM GSH degassed with N2. T = 298 K. […]

[2] = UV-vis spectra of the E isomers (n → π* absorption maximum); settings: E isomer, DMSO
Description: The UV-vis spectra of the (E)-X4 derivatives and (E)-X2,m-Y2 are shown in Fig. 3 (analogous spectra for the Z isomers, and deconvoluted spectra are available in the ESI ^†). […] The n → π* transition maximum, λmax, typically followed the order meta-H > –NMe2 > –OMe and ortho-S > Cl > F. It is clear from these experiments that the four ortho X substituents in the X4 derivatives are essential for achieving the deeply red-shifted tails which allows for red/near-IR triggered photo-isomerisation.
(§1) All UV-vis spectra were determined in DMSO solution. Extinction coefficients were determined by recording a UV-vis spectra for the E isomer at 10, 20, 30, 40 µM in DMSO respectively. The absorbance at the maximum of the π - π* transition of the E‐isomers was plotted against concentration (Beer-Lambert plot) to determine the molar extinction coefficient ε. For each slow relaxing compound, the E isomer sample at 40 µM was irradiated with the appropriate wavelength of light to generate the photo-stationary state, and another spectrum was run. This spectrum was normalised to units of ε and overlaid with the dark (100% E isomer) spectrum.

[3] = E → Z photo-isomerisation with LEDs / photo-stationary state (PSS) determination; settings: under irradiation
Experimental: The E → Z photo-isomerisation and half-life for the Z → E thermal isomerisation was evaluated for all derivatives (Fig. 7 and Table 1, see ESI ^† for original data). To our surprise, the half-lives for (Z)-X2,m-Y2 derivatives were in the order of hours to days for X = F and Cl: the effect of the meta group was not as drastic as anticipated. We typically observed a ∼4 fold decrease in half-life by substituting H with OMe, and a further 3-fold drop from OMe to NMe2 for X = F, Cl and SEt. The nature of the ortho-substituent appeared to be the main influence on τ1/2 (F > Cl ≫ SEt). However, these predictable trends observed for the meta-substitution allow for precise tuning of thermal half-lives. The photo-stationary states (PSSs) of these derivatives ranged from 48–77% Z isomer (Table 1).
Remarkably, it was possible to photo-switch the tetra-iodo derivative I4-ester using near-IR light (730 nm) (Fig. 8C). […] Photo-isomerisation was not detected for the ortho-telluro derivatives. This is consistent with findings by Haberhauer and co-workers, who propose that the strong chalcogen bonds in the E isomer of a PhTe-substituted azobenzene lead to dramatic energy differences between the E and Z isomers, which suppresses photoswitching.[43] The photo-stationary states of the halogen X4 derivatives range from 50–84% (Table 1) and could also be determined for the slower relaxing chalcogen derivatives (PSS 46–95%, see Fig. S308–S323 ^† for original data).
as §1, with “spectrum. […]” for “spectrum.”

Row | SMILES | t1 of 1st order exponential decay fit (decomposition with GSH) [1] [s] | τ 1/2 (10 mM GSH) [1] [h] | λ max of n → π* transition [2] [nm] | Stability to light [3]
1 | CC(C)(C)OC(=O)NCc1cc(Cl)c(/N=N/c2c(Cl)cc(CNC(=O)OC(C)(C)C)cc2Cl)c(Cl)c1 [Cl] | 14241.72745 ± 14.23 | 2.7 | – | –
2 | COc1cc(/N=N/c2cc(OC)c(CNC(=O)OC(C)(C)C)cc2OC)c(OC)cc1CNC(=O)OC(C)(C)C [OMe2,m-OMe2] | – | – | 426.6 | unstable to light
3 | CC(C)(C)OC(=O)NCc1cc(Br)c(N=Nc2c(Br)cc(CNC(=O)OC(C)(C)C)cc2Br)c(Br)c1 [Br] | 25249.56343 ± 57.34 | 5 | – | –
4 | CC(C)(C)OC(=O)NCc1cc(I)c(/N=N/c2c(I)cc(CNC(=O)OC(C)(C)C)cc2I)c(I)c1 [I] | 3971 ± 9.47 | 0.7 | – | –
5 | COc1cc(CNC(=O)OC(C)(C)C)c(OC)c(F)c1/N=N/c1c(OC)cc(CNC(=O)OC(C)(C)C)c(OC)c1F [(OMe)2F2,m-OMe2-NHBoc] | – | – | 425.4 | unstable to light
6 | CCSc1cc(CNC(=O)OC(C)(C)C)c(OC)c(SCC)c1/N=N/c1c(SCC)cc(CNC(=O)OC(C)(C)C)c(OC)c1SCC [(SEt)4,m-OMe2-NHBoc] | – | – | 512.9 | unstable to light
7 | CC(C)(C)OC(=O)NCc1cc(F)c(/N=N/c2c(F)cc(CNC(=O)OC(C)(C)C)cc2F)c(F)c1 [F] | 3748 ± 3.403 | 0.7 | – | –
